# Data as given in ChEMBL document CHEMBL5214979 (J Med Chem, 2022).
# How the values were obtained:
# [1] = Apparent permeability of the compound from apical to basolateral side in human Caco-2 cells incubated for 2 hrs by LC-MS/MS analysis; settings: caco-2, 2 h
# [2] = target: T1, Branched-chain-amino-acid aminotransferase, mitochondrial (Homo sapiens, UniProt O15382); test: Inhibition of human recombinant BCAT2 using leucine and alpha-KG as substrate in presence of NADH by fluorescence assay
# T1 sequence (O15382 whole entry): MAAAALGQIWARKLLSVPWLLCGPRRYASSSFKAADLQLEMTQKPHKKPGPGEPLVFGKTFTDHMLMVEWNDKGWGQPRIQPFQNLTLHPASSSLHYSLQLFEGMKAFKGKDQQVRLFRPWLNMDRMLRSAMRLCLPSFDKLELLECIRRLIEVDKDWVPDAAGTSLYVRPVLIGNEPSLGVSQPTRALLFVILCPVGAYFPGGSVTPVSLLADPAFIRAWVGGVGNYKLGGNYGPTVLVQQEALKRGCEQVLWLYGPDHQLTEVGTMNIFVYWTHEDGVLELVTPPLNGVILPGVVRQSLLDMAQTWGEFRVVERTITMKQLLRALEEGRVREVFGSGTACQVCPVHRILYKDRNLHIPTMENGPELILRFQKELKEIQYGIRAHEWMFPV
# [3] = Upregulation of BCAA expression in human MDA-MB-231 cells; assay type: functional, cell-based
# [4] = Metabolic stability in human liver microsomes assessed as blood clearance incubated upto 60 mins by LC-MS/MS analysis; assay type: ADME, Microsome
# [5] = Metabolic stability in Wistar Han rat hepatocyte assessed as blood clearance at 1 uM incubated upto 90 mins by LC-MS/MS analysis; assay type: ADME, cell-based; settings: hepatocytes
# [6] = Metabolic stability in human liver microsomes assessed as maximal oral bioavailability incubated upto 60 mins by LC-MS/MS analysis; assay type: ADME, Microsome
# [7] = Apparent permeability of the compound from basolateral to apical side in human Caco-2 cells incubated for 2 hrs by LC-MS/MS analysis; assay type: ADME, cell-based; settings: caco-2, 2 h
# [8] = Lipophilicity, logD of compound at pH 7.5; assay type: physicochemical; settings: buffer
# [9] = Aqueous solubility of compound in PBS buffer at pH 6.5 incubated for 24 hrs by HPLC-UV analysis; assay type: physicochemical; settings: pH 6.5, 24 h
# [10] = target: T2, Branched-chain-amino-acid aminotransferase, cytosolic (Homo sapiens, UniProt P54687); test: biochemical
# T2 sequence (P54687 whole entry): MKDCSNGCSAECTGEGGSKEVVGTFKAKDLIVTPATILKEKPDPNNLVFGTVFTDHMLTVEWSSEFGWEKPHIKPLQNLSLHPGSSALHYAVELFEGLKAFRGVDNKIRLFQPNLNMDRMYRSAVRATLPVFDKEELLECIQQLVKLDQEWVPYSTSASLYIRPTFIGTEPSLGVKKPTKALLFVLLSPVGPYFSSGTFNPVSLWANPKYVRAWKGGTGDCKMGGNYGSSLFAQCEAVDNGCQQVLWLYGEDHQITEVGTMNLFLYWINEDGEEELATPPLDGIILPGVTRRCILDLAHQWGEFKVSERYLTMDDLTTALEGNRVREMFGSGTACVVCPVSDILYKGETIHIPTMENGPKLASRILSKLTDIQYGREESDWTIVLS
# Description: Inhibition of N-terminal his-tagged human recombinant BCAT1 expressed in Escherichia coli BL21(DE3) cells using leucine and alpha-KG as substrate in presence of NADH by fluorescence assay
Papp [1],SMILES,also measured
1.1 ×10⁻⁶ cm/s,COc1cc(C#N)c(Oc2ccccc2C)cc1-n1c(=O)cc(C(N)=O)[nH]c1=O,
0.05 ×10⁻⁶ cm/s,COc1cc(C#N)c(Oc2ccccc2C)cc1-n1c(=O)cc(S(=O)(=O)c2ccccc2)[nH]c1=O,
,N#Cc1cc(F)c(-n2c(=O)cc(C(F)(F)F)[nH]c2=O)cc1Oc1ccccc1,IC50 [2]: 13.4 µM
3.3 ×10⁻⁶ cm/s,COc1cc(C#N)c(Oc2ccccc2C)cc1-n1c(=O)cc(C(F)(F)C(F)(F)F)[nH]c1=O,
,CCCc1cc(=O)n2nc(NCc3c(F)cc(Cl)cc3F)c(C#N)c2[nH]1,IC50 [3]: 564 µM
3 ×10⁻⁶ cm/s,COc1cc(C#N)c(Oc2ccccc2C)cc1-n1c(=O)cc(C(F)(F)Cl)[nH]c1=O,
7.1 ×10⁻⁶ cm/s,COc1cc(C#N)c(Oc2ccccc2C)cc1-n1c(=O)cc(Br)[nH]c1=O,
27.5 ×10⁻⁶ cm/s,Cc1ccccc1Oc1cc(-n2c(=O)cc(C(F)(F)F)[nH]c2=O)c2ccccc2c1 [BAY-771],"CLhep predicted [4]: 13.2 mL/min/kg; CLhep predicted at […], 1 µM [5]: 41.7 mL/min/kg; Fh at 1 h [6]: 40%; Papp [7]: 17.1 ×10⁻⁶ cm/s; logD [8]: 2.2; solubility [9]: > 412 µg/mL"
,COc1cc(OC)c(-n2c(=O)cc(C(F)(F)F)[nH]c2=O)cc1Cl,IC50 [2]: 20 µM; IC50 [10]: 3.3 µM
,Cc1ccccc1Oc1cc(-n2c(=O)cc(C(F)(F)F)[nH]c2=O)c(F)cc1C#N,IC50 [2]: 13.3 µM
32.9 ×10⁻⁶ cm/s,COc1cc(C#N)c(Oc2ccccc2C)cc1-n1c(=O)cc(C(F)(F)c2ccccc2)[nH]c1=O,
,CNC(=O)c1ccn2c(-n3c(=O)cc(C(F)(F)F)[nH]c3=O)c(-c3ccccn3)nc2c1,IC50 [10]: 0.85 µM
2.9 ×10⁻⁶ cm/s,COc1cc(C#N)c(Oc2ccccc2C)cc1-n1c(=O)cc(S(C)(=O)=O)[nH]c1=O,
19.9 ×10⁻⁶ cm/s,COc1cc(Cl)c(Oc2ccccc2C)cc1-n1c(=O)cc(C(F)(F)F)[nH]c1=O,
28.4 ×10⁻⁶ cm/s,COc1cc(C#N)c(Oc2ccccc2C)cc1-n1c(=O)cc(-c2ccccc2)[nH]c1=O,

SMILES,Papp [1],also measured
Cc1ccccc1Oc1cc(-n2c(=O)cc(C(F)(F)F)[nH]c2=O)c(C)cc1C#N,4.8 ×10⁻⁶ cm/s,
COc1cc(C#N)c(Oc2ccccc2C)cc1-n1c(=O)cc(C(F)(F)F)[nH]c1=O,2.3 ×10⁻⁶ cm/s,
